In patent US20240400584A1, “COMPOUNDS AND METHODS FOR MODULATING SPLICING” (REMIX THERAPEUTICS INC., priority 2021, published 2024):
Where two headings read alike, the source gives them in different places.

What was measured:
[1] = test system: HiBit-tagged Target C in K562 cells; experiment: HiBiT protein abundance assay, Target C; format: cell-based, human; conditions: HiBiT-modified K562 cells, 24 hours, luminescence
Method: Compounds described herein were used to screen for effects on quantitative protein abundance using a HiBit assay system (Promega). Quantitative protein abundance was determined by measuring the protein levels of HiBit-tagged protein targets expressed in cell culture via luminescence using the Nano-Glo HiBiT Lytic Detection System, which uses a split complementation assay format to reconstitute NanoBiT enzyme to generate a luminescent signal. A protein abundance assay was developed such that endogenous protein targets could be modified with the HiBiT peptide tag and their abundance could be assessed after compound treatment. Briefly, K562 cell lines containing a HiBiT-modification were treated with various compounds described herein (e.g., compounds of Formulas (I)). After treatment for 24 hours, the protein abundance of a specific target was determined by measuring luminescence.
Cells were maintained in IMDM with 10% FBS. Before the assay, cells were diluted with […] growth media (IMDM+[…] media) and were seeded in a 384-well plate at a density of 10000 cells/well (for each cell line listed in Table 8). Each compound was prepared as a 10-point 3-fold serial dilution in DMSO with the top dose at a final concentration of 10 μM in the well. Unmodified K562 cells were added at the previously specified density with DMSO to serve as an assay baseline and positive control (PC) and DMSO only with the respective modified cell lines was added to the negative control (NC) columns. Final DMSO concentration was kept at or below 0.25% o. Treated cell plates were placed in an incubator at 37° C. with […] for 24 hours. After 24 hours, 25 μL of Complete HiBit Lytic reagent was added to each well at room temperature (e.g. one plate requiring 10 mL Lytic Buffer, 100 μL LgBiT Protein, 200 μL Lytic Substrate), shaken for 5 minutes at 600 RPM, then left to sit for 10 minutes for signal to stabilize before reading on a Spark Cyto plate reader (Tecan) with a 500 ms measurement time.
To determine compound effects on protein abundance of each target in Table 9, the percent response for each respective cell line was calculated at each compound concentration as follows:
For the normalized response at each concentration, a four-parameter logistical regression was fit to the data and the response was interpolated at the […] to determine a concentration for protein abundance at 50% o (IC50) the untreated control.

Target C = experiment: Gene panel canonical junction qPCR assay, Target C CJ mRNA (Table 7); format: cell-based, human; conditions: read-out: Target C CJ mRNA decrease IC50
Procedure, shortened: (§1)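 A673/K562 cells + cpd → lysate → cDNA → qPCR, CY5 5′ nuclease probe set overlapping canonical junction. Normalized to GAPDH/GUSB/PPIA and DMSO via ΔΔCt, RQ → % response over fixed ΔCt window. IC50 = 50% CJ decrease, 4PL fit.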

HTT = experiment: Gene panel canonical junction qPCR assay, HTT CJ mRNA (Table 7); format: cell-based, human; conditions: read-out: HTT CJ mRNA decrease IC50
Procedure, shortened: as §1

SMN2 = experiment: Gene panel canonical junction qPCR assay, SMN2 CJ mRNA (Table 7); format: cell-based; conditions: Homo sapiens, read-out: SMN2 CJ mRNA decrease IC50
Procedure, shortened: as §1

Row | SMILES | IC50 [1] [nM] | IC50 (Target C; Homo sapiens) [nM] | IC50 (HTT; Homo sapiens) [nM] | IC50 (SMN2) [nM] | IC50 (Target C) [nM] | IC50 (HTT) [nM]
1 | C[C@@H]1C[C@H](N(C)c2ccc3c(c2)OCc2cc(-c4cn[nH]c4)ccc2-3)CCN1 [Compound 101] | 1000 to 10000 | > 10000 |  |  |  | 
2 | C[C@H]1C[C@H](N(C)c2ccc3c(c2)OCc2cc(-c4cn[nH]c4)ccc2-3)CCN1 [Compound 102] | 1000 to 10000 | > 10000 | > 10000 |  |  | 
3 | CN(c1ccc2c(c1)OCc1cc(-c3cn[nH]c3)ccc1-2)[C@@H]1C[C@H]2CC[C@@H](C1)N2 [Compound 104] | 1000 to 10000 | > 10000 | > 10000 |  |  | 
4 | CN(c1ccc2c(c1)OCc1cc(-n3cccn3)ccc1-2)[C@@H]1C[C@H]2CC[C@@H](C1)N2 [Compound 105] | 1000 to 10000 |  | > 10000 | > 10000 |  | 
5 | CN(c1ccc2c(n1)OCc1cc(-c3cn[nH]c3)ccc1-2)[C@@H]1C[C@H]2CC[C@@H](C1)N2 [Compound 108] | < 100 | < 100 | < 100 | < 100 |  | 
6 | CN(c1ccc2c(c1)CCOc1cc(-n3cccn3)ccc1-2)[C@@H]1C[C@H]2CC[C@@H](C1)N2 [Compound 113] | > 10000 | > 10000 | > 10000 | > 10000 |  | 
7 | CN(c1ccc2c(n1)OCc1cc(-c3cn[nH]c3)ccc1-2)C1CCNCC1 [Compound 116] | 1000 to 10000 | 100 to 1000 | 100 to 1000 | 100 to 1000 |  | 
8 | CN(c1ccc2c(c1)COc1cc(-n3cccn3)ccc1-2)C1CC(C)(C)NC(C)(C)C1 [Compound 117] | 1000 to 10000 |  | > 10000 | > 10000 |  | 
9 | CC1(C)CC(Nc2ccc3c(c2)COc2cc(-n4cccn4)ccc2-3)CC(C)(C)N1 [Compound 118] | 1000 to 10000 |  | > 10000 | > 10000 |  | 
10 | CN(c1ccc2c(n1)COc1cc(-c3cn[nH]c3)ccc1-2)[C@@H]1C[C@H]2CC[C@@H](C1)N2 [Compound 121] | 100 to 1000 | 100 to 1000 | 100 to 1000 | 100 to 1000 |  | 
11 | CN(c1ccc2c(n1)COc1cc(-n3cccn3)ccc1-2)[C@@H]1C[C@H]2CC[C@@H](C1)N2 [Compound 124] | 1000 to 10000 | 1000 to 10000 | 1000 to 10000 | 1000 to 10000 |  | 
12 | CN(c1ccc2c(n1)COc1cc(-n3cccn3)ccc1-2)C1CC(C)(C)NC(C)(C)C1 [Compound 125] | 1000 to 10000 | > 10000 | > 10000 | > 10000 |  | 
13 | CN(c1ccc2c(n1)CCOc1cc(-n3cccn3)ccc1-2)C1CC(C)(C)NC(C)(C)C1 [Compound 129] | > 10000 | > 10000 | > 10000 | > 10000 |  | 
14 | CC1(C)CC(Nc2ccc3c(n2)COc2cc(-n4cccn4)ccc2-3)CC(C)(C)N1 [Compound 134] | 1000 to 10000 | < 100 | 1000 to 10000 | 1000 to 10000 |  | 
15 | CN(c1cnc2c(n1)OCc1cc(-c3cn[nH]c3)ccc1-2)C1CC(C)(C)NC(C)(C)C1 [Compound 142] | 1000 to 10000 |  |  | 100 to 1000 | 1000 to 10000 | 100 to 1000
16 | c1cc2c(cc1-c1cn[nH]c1)COc1nc(N[C@@H]3C[C@H]4CC[C@@H](C3)N4)cnc1-2 [Compound 143] | 100 to 1000 | 100 to 1000 | 100 to 1000 | 100 to 1000 |  | 
17 | CN(c1cnc2c(n1)OCc1cc(-c3cn[nH]c3)ccc1-2)[C@@H]1C[C@H]2CC[C@@H](C1)N2 [Compound 144] | < 100 | 100 to 1000 | 100 to 1000 | > 10000 |  | 
18 | CN(c1ccc2c(n1)OCCc1cc(-c3cn[nH]c3)ccc1-2)C1CC(C)(C)NC(C)(C)C1 [Compound 145] | 1000 to 10000 | 1000 to 10000 | > 10000 | 1000 to 10000 |  | 
19 | CN(c1ccc2c(n1)OCCc1cc(-c3cn[nH]c3)ccc1-2)[C@@H]1C[C@H]2CC[C@@H](C1)N2 [Compound 146] | 1000 to 10000 | > 10000 | 1000 to 10000 | > 10000 |  | 

Row | SMILES | IC50 [1] [nM] | IC50 (Target C; Homo sapiens) [nM] | IC50 (HTT; Homo sapiens) [nM] | IC50 (SMN2) [nM] | IC50 (Target C) [nM] | IC50 (HTT) [nM]
20 | CN(c1ccc2c(n1)OCc1cc(-c3cn[nH]c3)ccc1-2)C1CC(C)(C)NC(C)(C)C1 [Compound 147] | 100 to 1000 | 100 to 1000 | 100 to 1000 | > 10000 |  | 
21 | CN(c1ccc2c(n1)OCc1cc(-n3cccn3)ccc1-2)C1CC(C)(C)NC(C)(C)C1 [Compound 148] | 1000 to 10000 | 1000 to 10000 | 1000 to 10000 | 100 to 1000 |  | 
22 | CN(c1ccc2c(n1)OCc1cc(-n3cccn3)ccc1-2)[C@@H]1C[C@H]2CC[C@@H](C1)N2 [Compound 149] | 100 to 1000 | 100 to 1000 | 100 to 1000 | 100 to 1000 |  | 
23 | CN(c1ccc2c(n1)OCc1cc(-n3nccn3)ccc1-2)[C@@H]1C[C@H]2CC[C@@H](C1)N2 [Compound 151] | < 100 | 100 to 1000 | < 100 | < 100 |  | 
24 | CN(c1ccc2c(n1)OCc1cc(-n3ccnn3)ccc1-2)[C@@H]1C[C@H]2CC[C@@H](C1)N2 [Compound 152] | 100 to 1000 | 100 to 1000 | 100 to 1000 | < 100 |  | 
25 | CN(c1ccc2c(n1)OCc1cc(-c3ccn(C)c(=O)c3)ccc1-2)[C@@H]1C[C@H]2CC[C@@H](C1)N2 [Compound 153] | < 100 | < 100 | < 100 | < 100 |  | 
26 | Cc1[nH]ncc1-c1ccc2c(c1)COc1nc(N(C)[C@@H]3C[C@H]4CC[C@@H](C3)N4)ccc1-2 [Compound 154] | 100 to 1000 | 100 to 1000 | 100 to 1000 | 100 to 1000 |  | 
27 | Cc1ncc(-c2ccc3c(c2)COc2nc(N(C)[C@@H]4C[C@H]5CC[C@@H](C4)N5)ccc2-3)o1 [Compound 155] | < 100 | 100 to 1000 | < 100 | < 100 |  | 
28 | COc1cc(-c2ccc3c(c2)COc2nc(N(C)[C@@H]4C[C@H]5CC[C@@H](C4)N5)ccc2-3)ccn1 [Compound 156] | 100 to 1000 | 100 to 1000 | < 100 | 100 to 1000 |  | 
29 | CN(c1ccc2c(n1)OCc1cc(-c3ccc(=O)[nH]c3)ccc1-2)[C@@H]1C[C@H]2CC[C@@H](C1)N2 [Compound 157] | 1000 to 10000 | 1000 to 10000 | 1000 to 10000 | 100 to 1000 |  | 
30 | CN(c1ccc2c(n1)OCc1cc(-c3ccc(=O)n(C)c3)ccc1-2)[C@@H]1C[C@H]2CC[C@@H](C1)N2 [Compound 158] | 1000 to 10000 | 100 to 1000 | 100 to 1000 | 100 to 1000 |  | 
31 | COc1cc(-c2ccc3c(c2)COc2nc(N(C)[C@@H]4C[C@H]5CC[C@@H](C4)N5)ccc2-3)cnn1 [Compound 159] | < 100 | < 100 | < 100 | < 100 |  | 
32 | CN(c1ccc2c(n1)OCc1cc(-c3cnn(C)c(=O)c3)ccc1-2)[C@@H]1C[C@H]2CC[C@@H](C1)N2 [Compound 160] | < 100 | < 100 | < 100 | < 100 |  | 
33 | CN(c1ccc2c(n1)OCc1cc(-c3cnc(=O)[nH]c3)ccc1-2)[C@@H]1C[C@H]2CC[C@@H](C1)N2 [Compound 161] | > 10000 | > 10000 | > 10000 | > 10000 |  | 
34 | CN(c1ccc2c(n1)OCc1cc(-c3cc(=O)n(C)cn3)ccc1-2)[C@@H]1C[C@H]2CC[C@@H](C1)N2 [Compound 162] | < 100 | < 100 | < 100 | < 100 |  | 
35 | CN(c1ccc2c(n1)OCc1cc(-n3ccnc3)ccc1-2)[C@@H]1C[C@H]2CC[C@@H](C1)N2 [Compound 163] | < 100 | 100 to 1000 | < 100 | < 100 |  | 
36 | Cc1cn(-c2ccc3c(c2)COc2nc(N(C)[C@@H]4C[C@H]5CC[C@@H](C4)N5)ccc2-3)cn1 [Compound 164] | < 100 | 100 to 1000 | < 100 | < 100 |  | 
37 | CC1(C)CC(Nc2ccc3c(n2)OCc2cc(-n4cccn4)ccc2-3)CC(C)(C)N1 [Compound 165] | 100 to 1000 | 100 to 1000 | 100 to 1000 | < 100 |  | 
38 | c1cnn(-c2ccc3c(c2)COc2nc(NC4CNC4)ccc2-3)c1 [Compound 166] | > 10000 | > 10000 | > 10000 | 1000 to 10000 |  | 
